Patent US20240239813A1, “KRAS INHIBITORS AND PHARMACEUTICAL USES THEREOF” (RISEN (SUZHOU) PHARMA TECH CO., LTD., priority 2022, published 2024)
pIC50: −log10 of the molar value.

Assays:
[1] = biological target: His-tagged Human KRAS^G12D (Homo sapiens (Human), UniProt P01116, G12D); experiment: HTRF KRAS G12D GTP binding assay; conditions: displacement of GTP-Red tracer
Method: KRAS^G12D was used in this assay.
The ability of a test compound to bind to KRAS^G12D was measured by using an HTRF KRAS^G12D GTP Binding Kit (Cisbio, 63ADK000CB27PEG). […] 5 μL of compound solution was added to each well after serial dilution, followed by addition of 5 μL of GDP (50 nM) solution. After 30 minutes incubation at room temperature, 1×6His Eu cryptate antibody solution and GTP-Red tracer were added to the plate, then incubated for another 30 minutes. The HTRF signal was measured with a VICTOR Nivo multimode plate reader according to the manufacturer's instructions. The percent inhibition was calculated using the following formula: […]
(where the “Maximum Signal” are wells containing DMSO without inhibitor; the “Minimum Signal” are wells containing reference inhibitory component (GDP); the “Test compound signal” are wells containing test compound (inhibitor) at established concentrations).
IC50 was determined by fitting percent inhibition at each inhibitor concentration to the four-parameter nonlinear logistic equation using GraphPad Prism.

[2] = system: GP2D; experiment: Cell proliferation assay (CellTiterGlo), GP2D; assay type: cell-based; conditions: Homo sapiens, 72 hours
Method: (§1) A cell proliferation assay was used to evaluate inhibition by exemplary compounds. Proliferation assays used human tissue derived cancer cell lines, for example, AsPC-1 (Cobioer, CBP60546), GP2D (Cobioer, CBP60683), NCI-H358 (Cobioer, CBP60544), NCI-H727 (Cobioer, CBP60182), MKN-1 (Cobioer, CBP60486), HCT116 (ATCC, CCL-247), and HT-29 (Cobioer, CBP60011). Signal reflecting cell proliferation was detected with the CellTiterGlo kit (Promega, G7573).
(§2) Cells were cultured in the growth phase and 3×10^3 cells per well were plated in a 96-well plate (Greiner, 655090). Cells were incubated 24 hours at 37° C. and 5% carbon dioxide in a humidity chamber. Serially diluted exemplary compounds were added to the plate which was then incubated for another 72 hours. Plates were brought to room temperature and an equal volume of CellTiterGlo reagent was added. After 10 minutes incubation at room temperature to stabilize the signal, the luminescent signal was measured on the VICTOR Nivo multimode plate reader according to the manufacturer's instructions. The signal was converted to percent inhibition using the following formula: […]
(§3) (where the “Maximum Signal” are wells containing DMSO without inhibitor; the “Minimum Signal” are signal of wells recorded at Day 0 prior to commencement of the experiment; the “Test compound signal” are wells containing inhibitor at established concentrations).
(§4) IC50 was determined by fitting percent inhibition at each inhibitor concentration to the four-parameter nonlinear logistic equation using GraphPad Prism. IC50 (nM) values of selected compounds are depicted in Table 4. “-”: means without measuring; and “ND” means not detected.

[3] = system: NCI-H358; experiment: Cell proliferation assay (CellTiterGlo), NCI-H358; assay type: cell-based; conditions: Homo sapiens, NCI-H358, 72 hours
Method: as §1, §2, §3, §4

[4] = Microsomal stability assay, mouse liver microsomes; assay type: in vitro ADME; conditions: CD-1, pooled mouse liver microsomes, 0.5 mg/mL protein
Method: (§5) Test results from this assay were used to determine the metabolic liabilities of test compounds and allow focus on the improvement of drug candidates through structure-activity relationships. Pooled mouse/rat/human liver microsomes were used for this assay
(§6) In vitro mouse (CD-1, BioIVT)/rat (SD, RILD)/human (Corning) liver microsomal suspensions at 0.5 mg/mL protein and 1.3 mM NADPH, 3.3 mM MgCl2 were pre incubated at 37° C. for 3 mins prior to addition of 0.1 mM test compound solution to give a final incubation concentration of 1 μM. Samples were incubated for 0, 15, 30, 60 minutes at 37° C. on a shaker (the positive control substance was cultured for 0 or 60 minutes). At the end of each incubation time both incubated and control samples were quenched with ice-cold stop solution containing internal standard. All samples were mixed by a plate shaker at 800 rpm for 5 minutes, then centrifuged at 4100 rpm for 15 minutes at 4° C. to precipitate protein. Supernatant was transferred to another 96-well plate, dilution solution was added to each supernatant well, and then each bioanalysis plate was sealed. The samples were mixed by plate shaker at 800 rpm for 5 minutes and then centrifuged at 4° C., 4100 rpm for 5 minutes. All samples were stored at 4° C. before LC-MS/MS analysis.
(§7) The peak area ratio was converted to the remaining percentages (% Remaining) using the following formula: […]
(§8) where % Remaining is the compound ratio (compound peak area/internal standard peak area) as a percentage of the 0 minute time point.
(§9) The ln remaining percent of test articles were plotted against time and the gradient of the line determined; the gradient was converted to elimination rate constant by using the following formula:
(§10) Elimination rate constant(ke)=−gradient
(§11) Half time (T1/2) was determined using following formula: […]
(§12) Hepatic intrinsic clearance (CLint(liver)) was determined by using the following formulas: […]
(§13) The Intrinsic clearance of selected compounds is depicted in Table 6.

[5] = Microsomal stability assay, rat liver microsomes; assay type: in vitro ADME; conditions: SD, pooled rat liver microsomes, 0.5 mg/mL protein
Method: as §5, §6, §7, §8, §9, §10, §11, §12, §13

[6] = Microsomal stability assay, human liver microsomes; assay type: in vitro ADME; conditions: pooled human liver microsomes, 0.5 mg/mL protein
Method: as §5, §6, §7, §8, §9, §10, §11, §12, §13

Sequence of His-tagged Human KRAS^G12D (P01116-2 other isoform, or with tags, fused parts or gaps G12D): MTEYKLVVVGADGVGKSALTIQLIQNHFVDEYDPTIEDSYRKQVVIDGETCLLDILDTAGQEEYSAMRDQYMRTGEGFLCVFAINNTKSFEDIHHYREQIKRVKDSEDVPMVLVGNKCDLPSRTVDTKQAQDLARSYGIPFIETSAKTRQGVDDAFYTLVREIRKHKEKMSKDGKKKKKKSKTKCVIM

| Compound | pIC50 [1] | other results |
| --- | --- | --- |
| CCc1c(F)ccc2cc(O)cc(-c3ncc4c(N5CCC[C@]6(CCO6)C5)nc(OCC5(CN6CCC7(CC6)COC7)CC5)nc4c3F)c12 [Compound 18a] | 8.35 | pIC50 [2]: 8.72; pIC50 [3]: 7.64 |
| CCc1c(F)ccc2cc(O)cc(-c3ncc4c(N5CCC[C@]6(CCO6)C5)nc(OCC5(CN6CCC7(CC6)CC(N6CCC(c8ccc9cnn(C)c9c8)CC6)C7)CC5)nc4c3F)c12 [Compound 19a] | 7.79 | pIC50 [2]: 7.85; pIC50 [3]: 7.82 |
| CCc1c(F)ccc2cc(O)cc(-c3ncc4c(N5CCC[C@]6(CCO6)C5)nc(OCC5(CN6CCC7(CC6)CC(N6CCOCC6)C7)CC5)nc4c3F)c12 [Compound 20a] | 8.33 | pIC50 [2]: 8.33; pIC50 [3]: 6.90 |
| CCc1c(F)ccc2cc(O)cc(-c3ncc4c(N5CCC[C@]6(CCO6)C5)nc(OCC5(CN6CCC7(CC6)CC(N6CCCCC6)C7)CC5)nc4c3F)c12 [Compound 21a] | 8.17 | pIC50 [2]: 7.79; pIC50 [3]: 7.04 |
| CCc1c(F)ccc2cc(O)cc(-c3ncc4c(N5CCC[C@]6(CCO6)C5)nc(OCC5(CN6CCC(C(=O)O)CC6)CC5)nc4c3F)c12 [Compound 33a] | 7.99 | pIC50 [2]: 6.38; pIC50 [3]: < 5.00 |
| CCc1c(F)ccc2cc(O)cc(-c3ncc4c(N5CCC[C@H]5C(C)(C)O)nc(OC[C@@]56CCCN5C[C@H](F)C6)nc4c3F)c12 [Compound 45] | < 6.00 | – |
| CCc1c(F)ccc2cc(O)cc(-c3ncc4c(N5CCCCC(OC)C5)nc(OCC5(CN(C)C)CC5)nc4c3F)c12 (stereo not drawn) [Compound 45a] | < 6.00 | – |
| CCc1c(F)ccc2cc(O)cc(-c3ncc4c(N5C[C@H]6C[C@@H]5C(=O)N6)nc(OC[C@@]56CCCN5C[C@H](F)C6)nc4c3F)c12 [Compound 46] | < 6.00 | – |
| CCc1c(F)ccc2cc(O)cc(-c3ncc4c(N5CCCCC(O)C5)nc(OCC5(CN(C)C)CC5)nc4c3F)c12 (stereo not drawn) [Compound 46a] | 6.17 | – |
| CCc1c(F)ccc2cc(O)cc(-c3ncc4c(OC[C@@]56CCCN5C[C@H](F)C6)nc(OC[C@@]56CCCN5C[C@H](F)C6)nc4c3F)c12 [Compound 47] | < 6.00 | – |
| CCc1c(F)ccc2cc(O)cc(-c3ncc4c(N5CC[C@H](CO)C5)nc(OC[C@@]56CCCN5C[C@H](F)C6)nc4c3F)c12 [Compound 48] | < 6.00 | – |
| N#Cc1c(N)sc2c(F)ccc(-c3c(Cl)cc4c(N5CCC[C@]6(CCO6)C5)nc(OCC5(CN6CCCCC6)CC5)nc4c3F)c12 [Compound 48a] | < 6.00 | – |
| CCc1c(F)ccc2cc(O)cc(-c3ncc4c(N5CCC(C(C)=O)CC5)nc(OC[C@@]56CCCN5C[C@H](F)C6)nc4c3F)c12 [Compound 49] | < 6.00 | – |
| CCc1c(F)ccc2cc(O)cc(-c3ncc4c(N5CCC[C@]6(CCO6)C5)nc(OCC5(CN(C)CC6COC6)CC5)nc4c3F)c12 [Compound 49a] | 8.39 | – |
| CCc1c(F)ccc2cc(O)cc(-c3ncc4c(N5CCCC6(COC6)C5)nc(OC[C@@]56CCCN5C[C@H](F)C6)nc4c3F)c12 [Compound 50] | 7.15 | – |
| CCc1c(F)ccc2cc(O)cc(-c3ncc4c(N5CCC[C@]6(CCO6)C5)nc(OCC5(CN(C)CC6CCOC6)CC5)nc4c3F)c12 (stereo partly drawn) [Compound 50a] | 8.17 | – |
| CCc1c(F)ccc2cc(O)cc(-c3ncc4c(N5CCC6CC6(O)C5)nc(OC[C@@]56CCCN5C[C@H](F)C6)nc4c3F)c12 (stereo partly drawn) [Compound 52] | < 6.00 | – |
| CCc1c(F)ccc2cc(O)cc(-c3ncc4c(N5CCC6(CC5)COC6)nc(OC[C@@]56CCCN5C[C@H](F)C6)nc4c3F)c12 [Compound 53] | < 6.00 | – |

| Compound | pIC50 [1] | other results |
| --- | --- | --- |
| CCc1c(F)ccc2cc(O)cc(-c3ncc4c(N5CC6(COC6)C5)nc(OC[C@@]56CCCN5C[C@H](F)C6)nc4c3F)c12 [Compound 54] | < 6.00 | – |
| CCc1c(F)ccc2cc(O)cc(-c3ncc4c(N5C[C@H](N)C[C@H]5CO)nc(OC[C@@]56CCCN5C[C@H](F)C6)nc4c3F)c12 [Compound 55] | < 6.00 | – |
| CCc1c(F)ccc2cc(O)cc(-c3ncc4c(N5CCC(C)(CO)C5)nc(OC[C@@]56CCCN5C[C@H](F)C6)nc4c3F)c12 (stereo partly drawn) [Compound 56] | < 6.00 | – |
| CCc1c(F)ccc2cc(O)cc(-c3ncc4c(N5[C@H](CO)C[C@H]6C[C@H]65)nc(OC[C@@]56CCCN5C[C@H](F)C6)nc4c3F)c12 [Compound 57] | 6.29 | – |
| CCc1c(F)ccc2cc(O)cc(-c3ncc4c(N5CCC6(CCCC6=O)CC5)nc(OC[C@@]56CCCN5C[C@H](F)C6)nc4c3F)c12 [Compound 58] | < 6.00 | – |
| CCc1c(F)ccc2cc(O)cc(-c3ncc4c(N5CCC6(CCC6=O)CC5)nc(OC[C@@]56CCCN5C[C@H](F)C6)nc4c3F)c12 [Compound 59] | < 6.00 | – |
| CCc1c(F)ccc2cc(O)cc(-c3ncc4c(N5CCC6(CCO6)CC5)nc(OC[C@@]56CCCN5C[C@H](F)C6)nc4c3F)c12 [Compound 60] | < 6.00 | – |
| CCc1c(F)ccc2cc(O)cc(-c3ncc4c(N5CCC6(COC6)C5)nc(OC[C@@]56CCCN5C[C@H](F)C6)nc4c3F)c12 [Compound 61] | < 6.00 | – |
| CCc1c(F)ccc2cc(O)cc(-c3ncc4c(N5CCC6(CCO6)C5)nc(OC[C@@]56CCCN5C[C@H](F)C6)nc4c3F)c12 (stereo partly drawn) [Compound 62] | < 6.00 | – |
| Nc1cc(Cl)c(C(F)(F)F)c(-c2ncc3c(N4CCCC5(COC5)C4)nc(OC[C@@]45CCCN4C[C@H](F)C5)nc3c2F)c1 [Compound 63] | < 6.00 | – |
| CCc1c(F)ccc2cc(O)cc(-c3ncc4c(N5CCCC6(CCOC6)C5)nc(OC[C@@]56CCCN5C[C@H](F)C6)nc4c3F)c12 (stereo partly drawn) [Compound 64] | < 6.00 | – |
| CCc1c(F)ccc2cc(O)cc(-c3ncc4c(N5CCC[C@@]6(CCO6)C5)nc(OC[C@@]56CCCN5C[C@H](F)C6)nc4c3F)c12 [Compound 67] | – | CLint scaled at 1 μM [4]: 1280 mL/min/kg; CLint scaled at 1 μM [5]: 288 mL/min/kg; CLint scaled at 1 μM [6]: 83.5 mL/min/kg |
| CCc1c(F)ccc2cc(O)cc(-c3ccc4c(N5CCCC6(CCO6)C5)nc(OC[C@@]56CCCN5C[C@H](F)C6)nc4c3F)c12 (stereo partly drawn) [Compound 70] | 7.17 | – |
| CCc1c(F)ccc2cc(O)cc(-c3c(Cl)cc4c(N5CCCC6(CCO6)C5)nc(OC[C@@]56CCCN5C[C@H](F)C6)nc4c3F)c12 (stereo partly drawn) [Compound 92] | 6.38 | – |
| CCc1c(F)ccc2cc(O)cc(-c3c(F)cc4c(N5CCCC6(CCO6)C5)nc(OC[C@@]56CCCN5C[C@H](F)C6)nc4c3F)c12 (stereo partly drawn) [Compound 96] | 6.89 | – |
| CCc1c(F)ccc2cc(O)cc(-c3ncc4c(N5CC6(CCC6O)C5)nc(OC[C@@]56CCCN5C[C@H](F)C6)nc4c3F)c12 (stereo partly drawn) [Compound 110] | < 6.00 | – |
| CCc1c(F)ccc2cc(O)cc(-c3ncc4c(N5CC6(CCC6=O)C5)nc(OC[C@@]56CCCN5C[C@H](F)C6)nc4c3F)c12 [Compound 112] | < 6.00 | – |
| CCc1c(F)ccc2cc(O)cc(-c3ncc4c(N5CCCC6(C5)OCCO6)nc(OC[C@@]56CCCN5C[C@H](F)C6)nc4c3F)c12 [Compound 117] | 6.43 | – |
